# pIC50: −log10 of the molar value.
# Tests used:
# [1] = Apparent permeability across apical to basolateral side in MDCKII-MDR1 cells at 10 uM by LC-MS/MS analysis; type: ADME, cell-based, Canis lupus familiaris; conditions: dog, MDCK-MDR1
# [2] = Apparent permeability across basolateral side to apical in MDCKII-MDR1 cells at 10 uM by LC-MS/MS analysis; type: ADME, cell-based, Canis lupus familiaris; conditions: dog, MDCK-MDR1
# H4 [3] = assay: Cytotoxicity against human H4 cells assessed as cell viability at 1 to 1000 uM incubated for 24 hrs by CCK-8 assay; type: toxicity, cell-based; conditions: h4, 24 h, dose 1-1000 µM
# [4] = Cytotoxicity against human H4 cells assessed as cell viability at 30 uM incubated for 24 hrs by CCK-8 assay relative to control; type: toxicity, cell-based; conditions: read-out: Activity
# H4 [5] = assay: Cytotoxicity against human H4 cells assessed as cell viability at 300 uM incubated for 24 hrs by CCK-8 assay relative to control; type: toxicity, cell-based; conditions: h4, 24 h
# Alpha-synuclein = Alpha-synuclein (Homo sapiens, UniProt P37840); assay: Inhibition of alpha-synuclein (unknown origin) aggregation inhibition ratio by measuring relative fluorescence intensity measured after 3 days by ThT F1 based assay relative to control
SMILES,Papp A→B at 10 µM [1] [×10⁻⁶ cm/s],Papp B→A at 10 µM [2] [×10⁻⁶ cm/s],Activity (H4 [3]),"viability at 24 h, 30 µM [4] [%]",Activity (H4 [5]),pIC50 (Alpha-synuclein)
Cc1ccc(-c2cc(C(=O)Nc3cc(O)ccc3O)[nH]n2)cc1,2.26,6.65,Non-Toxic,74,,
O=C(Nc1ccc(O)c(O)c1)c1cc(-c2ccc(C(F)(F)F)cc2)n[nH]1,4.2,1.86,Non-Toxic,95,,
O=C(Nc1cc(O)ccc1O)c1cc(-c2ccc(Br)cc2)n[nH]1,29.6,12,Non-Toxic,95,Non-Toxic,
O=C(Nc1cc(O)ccc1O)c1cc(-c2ccc(C(F)(F)F)cc2)n[nH]1,49.7,19.3,Non-Toxic,95,,
O=C(O[C@@H]1Cc2c(O)cc(O)cc2O[C@@H]1c1cc(O)c(O)c(O)c1)c1cc(O)c(O)c(O)c1 [EPIGALOCATECHIN GALLATE],,,Non-Toxic,,,5.59

# From ChEMBL document CHEMBL5505980, “Pyrazolamide derivatives inhibit α-Synuclein aggregation, disaggregate preformed fibers, and reduce inclusion formation in neuron cells” (Eur J Med Chem, 2024)
